Experimental data taken from PubChem BioAssay (NCI).
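Cultured in 96-well plates, cells were exposed to test compound for 48 hours across five concentrations. At the GI50, growth is halved. TGI: concentration producing complete growth inhibition.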

The compounds below were run on HL-60(TB) leukemia (assay: NCI-60 cell line screen, 48 h).

| Structure (SMILES) | TGI [µM] |
| --- | --- |
| O=C(CCn1ccnc1[N+](=O)[O-])NCCCn1ccnc1[N+](=O)[O-] | > 100 |
| O=[N+]([O-])C(=C(Nc1ccccc1)Nc1ccccc1)C(Cl)=C(Cl)Cl | 27.7 |
| O=C1NC(N2CCOCC2)=N/C1=C\c1ccco1 | > 100 |

Each compound was assayed on RPMI-8226 leukemia (assay: NCI-60 cell line screen, 48 h).

| Structure (SMILES) | TGI [µM] |
| --- | --- |
| CN1C(=O)c2ccccc2NC(=O)C12O[C@@H]2c1ccccc1 (some centres undefined) | > 100 |
| CC1(C)[C@@H]2CC[C@@]1(C)CN(CCC[N+](C)(C)C)C2 | > 100 |
| COc1cc(C(=O)N2CCN(C(=O)c3cc(OC)c(OC)c(OC)c3)C2=S)cc(OC)c1OC | 26.1 |
| O=C(CCn1ccnc1[N+](=O)[O-])NCCCn1ccnc1[N+](=O)[O-] | > 100 |
| O=[N+]([O-])C(=C(Nc1ccccc1)Nc1ccccc1)C(Cl)=C(Cl)Cl | 65.9 |
| O=C1NC(N2CCOCC2)=N/C1=C\c1ccco1 | > 100 |

The compounds below were run on MOLT-4 leukemia (assay: NCI-60 cell line screen, 48 h).

| Structure (SMILES) | TGI [µM] | GI50 [µM] |
| --- | --- | --- |
| CN1C(=O)c2ccccc2NC(=O)C12O[C@@H]2c1ccccc1 (some centres undefined) | > 100 | – |
| CC1(C)[C@@H]2CC[C@@]1(C)CN(CCC[N+](C)(C)C)C2 | > 100 | – |
| COc1cc(C(=O)N2CCN(C(=O)c3cc(OC)c(OC)c(OC)c3)C2=S)cc(OC)c1OC | 58.4 | 23.5 |
| O=C(CCn1ccnc1[N+](=O)[O-])NCCCn1ccnc1[N+](=O)[O-] | > 100 | – |
| O=[N+]([O-])C(=C(Nc1ccccc1)Nc1ccccc1)C(Cl)=C(Cl)Cl | 1.09 | – |
| O=C1NC(N2CCOCC2)=N/C1=C\c1ccco1 | > 100 | – |

What follows are compounds tested on PC-3 prostate (assay: NCI-60 cell line screen, 48 h).

| Structure (SMILES) | TGI [µM] | GI50 [µM] |
| --- | --- | --- |
| CN1C(=O)c2ccccc2NC(=O)C12O[C@@H]2c1ccccc1 (some centres undefined) | > 100 | – |
| CC1(C)[C@@H]2CC[C@@]1(C)CN(CCC[N+](C)(C)C)C2 | > 100 | – |
| COc1cc(C(=O)N2CCN(C(=O)c3cc(OC)c(OC)c(OC)c3)C2=S)cc(OC)c1OC | 32.2 | 15 |
| O=C(CCn1ccnc1[N+](=O)[O-])NCCCn1ccnc1[N+](=O)[O-] | > 100 | – |
| O=[N+]([O-])C(=C(Nc1ccccc1)Nc1ccccc1)C(Cl)=C(Cl)Cl | 29.6 | – |
| O=C1NC(N2CCOCC2)=N/C1=C\c1ccco1 | > 100 | – |

The compounds below were run on CAKI-1 renal (assay: NCI-60 cell line screen, 48 h).

| Structure (SMILES) | TGI [µM] | GI50 [µM] |
| --- | --- | --- |
| CN1C(=O)c2ccccc2NC(=O)C12O[C@@H]2c1ccccc1 (some centres undefined) | > 100 | – |
| CC1(C)[C@@H]2CC[C@@]1(C)CN(CCC[N+](C)(C)C)C2 | > 100 | – |
| COc1cc(C(=O)N2CCN(C(=O)c3cc(OC)c(OC)c(OC)c3)C2=S)cc(OC)c1OC | 24.7 | 12.3 |
| O=C(CCn1ccnc1[N+](=O)[O-])NCCCn1ccnc1[N+](=O)[O-] | > 100 | – |
| O=[N+]([O-])C(=C(Nc1ccccc1)Nc1ccccc1)C(Cl)=C(Cl)Cl | 33.4 | – |
| O=C1NC(N2CCOCC2)=N/C1=C\c1ccco1 | > 100 | – |

What follows are compounds tested on T-47D breast (assay: NCI-60 cell line screen, 48 h).

| Structure (SMILES) | TGI [µM] | GI50 [µM] |
| --- | --- | --- |
| CN1C(=O)c2ccccc2NC(=O)C12O[C@@H]2c1ccccc1 (some centres undefined) | > 100 | – |
| CC1(C)[C@@H]2CC[C@@]1(C)CN(CCC[N+](C)(C)C)C2 | > 100 | – |
| COc1cc(C(=O)N2CCN(C(=O)c3cc(OC)c(OC)c(OC)c3)C2=S)cc(OC)c1OC | 40.3 | 13.1 |
| O=C(CCn1ccnc1[N+](=O)[O-])NCCCn1ccnc1[N+](=O)[O-] | > 100 | – |
| O=[N+]([O-])C(=C(Nc1ccccc1)Nc1ccccc1)C(Cl)=C(Cl)Cl | 50.9 | – |
| O=C1NC(N2CCOCC2)=N/C1=C\c1ccco1 | > 100 | – |

These compounds were tested on EKVX NSCLC (assay: NCI-60 cell line screen, 48 h).

| Structure (SMILES) | TGI [µM] |
| --- | --- |
| CN1C(=O)c2ccccc2NC(=O)C12O[C@@H]2c1ccccc1 (some centres undefined) | > 100 |
| CC1(C)[C@@H]2CC[C@@]1(C)CN(CCC[N+](C)(C)C)C2 | > 100 |
| O=C(CCn1ccnc1[N+](=O)[O-])NCCCn1ccnc1[N+](=O)[O-] | > 100 |
| O=[N+]([O-])C(=C(Nc1ccccc1)Nc1ccccc1)C(Cl)=C(Cl)Cl | 33.1 |
| O=C1NC(N2CCOCC2)=N/C1=C\c1ccco1 | > 100 |

What follows are compounds tested on HCT-15 colon (assay: NCI-60 cell line screen, 48 h).

| Structure (SMILES) | TGI [µM] | GI50 [µM] |
| --- | --- | --- |
| CC1(C)[C@@H]2CC[C@@]1(C)CN(CCC[N+](C)(C)C)C2 | > 100 | – |
| COc1cc(C(=O)N2CCN(C(=O)c3cc(OC)c(OC)c(OC)c3)C2=S)cc(OC)c1OC | 47.4 | 20.2 |
| O=C(CCn1ccnc1[N+](=O)[O-])NCCCn1ccnc1[N+](=O)[O-] | > 100 | – |
| O=[N+]([O-])C(=C(Nc1ccccc1)Nc1ccccc1)C(Cl)=C(Cl)Cl | 32.3 | – |
| O=C1NC(N2CCOCC2)=N/C1=C\c1ccco1 | > 100 | – |

These compounds were tested on SNB-19 CNS (assay: NCI-60 cell line screen, 48 h).

| Structure (SMILES) | TGI [µM] |
| --- | --- |
| CC1(C)[C@@H]2CC[C@@]1(C)CN(CCC[N+](C)(C)C)C2 | > 100 |
